Read-outs that look alike come from different tables or passages of the source.
Tests used:
[1] = Description: A formulation comprising imazapic, benzyl alcohol and Tween-20 as detailed in Table 1 was prepared by (i) adding benzyl alcohol to a reactor; adding Tween-20 while mixing; (iii) gradually adding imazapic and continue mixing until the solution obtained is clear; (iv) discharging said solution from the reactor; and (v) filtering the solution using a 5 μm filter.
[2] = 20° C.; cited from earlier work
[3] = 20° C., cited from earlier work

SMILES | solubility in organic solvents suitable for agricultural applications [1] | solubility in isopropyl alcohol [2] [g/100 mL] | solubility in methanol [2] [g/100 mL] | solubility in octanol [2] [g/100 mL] | solubility in water ([3]; pH 5) [g/100 mL] | solubility in water ([3]; pH 7) [g/100 mL]
Cc1cnc(C2=NC(=O)C(C)(C(C)C)N2)c(C(=O)O)c1 (stereo not drawn) [imazapic] | dissolve | – | – | – | – | –
CC(C)N(C)S(=O)(=O)NC(=O)c1cc(-n2c(=O)cc(C(F)(F)F)n(C)c2=O)c(F)cc1Cl [saflufenacil, 2-chloro-5-[3,6-dihydro-3-methyl-2,6-dioxo-4-(trifluoromethyl)-1-(2H)pyrimidinyl]-4-fluoro-N-[[methyl(1-methylethyl)amino]sulfonyl]benzamide] | – | 0.25 | 2.98 | < 0.01 | 0.0025 | 0.21

— patent US20240147998A1, “HERBICIDAL COMPOSITIONS COMPRISING IMIDAZOLINONE-BASED ACETOLACTATE SYNTHASE INHIBITORS AND USES THEREOF” (Adama Agan Ltd., priority 2021, published 2024)
